Laboratory results reported in patent EP4417602A1, “SUBSTITUTED PYRAZOLE CARBOXAMIDES, SALTS THEREOF AND THEIR USE AS HERBICIDALLY ACTIVE SUBSTANCES” (Bayer AG, priority 2023, dated 2024).

Experiments:
POAAN [1] = test: B. Herbicidal post-emergence action on harmful plants (Tables B); assay type: in vivo, Poa annua; conditions: application rate 1280 g/ha; Table B7a
Experimental: (§1) Seeds of mono- and dicotyledonous weed plants were placed in plastic pots in sandy loam soil (doubly sown with in each case one species of mono- or dicotyledonous weed plants per pot), covered with soil and cultivated in a greenhouse under controlled growth conditions. 2 to 3 weeks after sowing, the test plants were treated at the one-leaf stage. The compounds of the invention, formulated in the form of wettable powders (WP) or as emulsion concentrates (EC), were applied onto the green parts of the plants as aqueous suspension or emulsion with addition of 0.5% additive at a water application rate of 600 liters per hectare (converted). After the test plants had been kept in the greenhouse under optimum growth conditions for about 3 weeks, the activity of the preparations was rated visually in comparison to untreated controls. For example, 100% activity = the plants have died, 0% activity = like control plants. Tables B1 to B12, below, show the effects of selected compounds of the general formula (I) according to table 1 on various harmful plants and an application rate corresponding to 1280 g/ha or below obtained by the experimental procedure mentioned above. Table B1a: post-emergence activity at 1280g/ha against ABUTH in %

ECHCG [2] = test: A. Herbicidal pre-emergence action on harmful plants (Tables A); assay type: in vivo, Echinochloa crus-galli; conditions: visual grading after ca. 3 weeks vs untreated controls, 100% = plants have died off, 0% = as control plants
Text: (§2) Seeds of mono- and dicotyledonous weed plants were sown in plastic pots (double sowings with one species of mono- and one species of dicotyledonous weed plants per pot), in sandy loam, and covered with soil. The compounds according to the invention, formulated in the form of wettable powders (WP) or as emulsifiable concentrates (EC), were applied to the surface of the covering soil as aqueous suspension or emulsion, with the addition of 0.5% of an additive, at an application rate of 6001 of water per hectare (converted). Following treatment, the pots were placed in a greenhouse and kept under optimum growth conditions for the test plants. The visual grading of the damage to the test plants was carried out after ca. 3 weeks in comparison to untreated controls (herbicidal effect in percent (%): 100% effect = plants have died off, 0% effect = as control plants). Tables A1 to A12, below, show the effects of selected compounds of the general formula (I) according to table 1 on various harmful plants and an application rate corresponding to 1280 g/ha or below obtained by the experimental procedure mentioned above. Table A1: pre-emergence activity at 1280g/ha against ABUTH in %

AMARE [3] = test: B. Herbicidal post-emergence action on harmful plants (Tables B); assay type: in vivo, Amaranthus retroflexus; conditions: application rate 1280 g/ha; Table B8
Experimental: as §1

LOLRI = test: A. Herbicidal pre-emergence action on harmful plants (Tables A); assay type: in vivo, Lolium rigidum; conditions: visual grading after ca. 3 weeks vs untreated controls, 100% = plants have died off, 0% = as control plants
Text: as §2

DIGSA = test: as above; assay type: in vivo, Digitaria sanguinalis
Text: as §2

STEME [4] = test: B. Herbicidal post-emergence action on harmful plants (Tables B); assay type: in vivo, Stellaria media; conditions: application rate 1280 g/ha; Table B6
Experimental: as §1

SETVI = test: A. Herbicidal pre-emergence action on harmful plants (Tables A); assay type: in vivo, Setaria viridis; conditions: visual grading after ca. 3 weeks vs untreated controls, 100% = plants have died off, 0% = as control plants
Text: as §2

POAAN [5] = test: as above; assay type: in vivo, Poa annua
Text: as §2

STEME [6] = test: as above; assay type: in vivo, Stellaria media; conditions: visual grading after ca. 3 weeks vs untreated controls, 100% = plants have died off, 0% = as control plants
Text: as §2

MATIN [7] = test: as above; assay type: in vivo, Matricaria inodora; conditions: visual grading after ca. 3 weeks vs untreated controls, 100% = plants have died off, 0% = as control plants
Text: as §2

AMARE [8] = test: as above; assay type: in vivo, Amaranthus retroflexus
Text: as §2

ECHCG [9] = test: B. Herbicidal post-emergence action on harmful plants (Tables B); assay type: in vivo, Echinochloa crus-galli; conditions: application rate 1280 g/ha; Table B2a
Experimental: as §1

VERPE = test: as above; assay type: in vivo, Veronica persica; conditions: application rate 1280 g/ha; Table B11a
Experimental: as §1

MATIN [10] = test: as above; assay type: in vivo, Matricaria inodora; conditions: application rate 1280 g/ha; Table B4a
Experimental: as §1

ALOMY = test: A. Herbicidal pre-emergence action on harmful plants (Tables A); assay type: in vivo, Alopecurus myosuroides; conditions: application rate 1280 g/ha; Table A9a
Text: as §2

[11] = application rate 320 g/ha, Table A12b
[12] = application rate 1280 g/ha, Table A12a
[13] = application rate 1280 g/ha, visual grading after ca. 3 weeks vs untreated controls, 100% = plants have died off, 0% = as control plants
[14] = application rate 320 g/ha, Table A7b
[15] = application rate 80 g/ha, Table A7c

Row | SMILES | post-emergence activity against POAAN (POAAN [1]) | pre-emergence activity against ECHCG (ECHCG [2]; application rate 320 g/ha) | pre-emergence activity against ECHCG (ECHCG [2]; application rate 1280 g/ha) | post-emergence activity against AMARE (AMARE [3]) | pre-emergence activity against LOLRI (LOLRI; application rate 1280 g/ha) | pre-emergence activity against DIGSA (DIGSA; [11]) | pre-emergence activity against DIGSA (DIGSA; [12]) | post-emergence activity against STEME (STEME [4]) | pre-emergence activity against SETVI (SETVI; application rate 1280 g/ha) | pre-emergence activity against POAAN (POAAN [5]; [13]) | pre-emergence activity against STEME (STEME [6]; application rate 1280 g/ha) | pre-emergence activity against ECHCG (ECHCG [2]; application rate 80 g/ha) | pre-emergence activity against SETVI (SETVI; application rate 80 g/ha) | pre-emergence activity against SETVI (SETVI; application rate 320 g/ha) | pre-emergence activity against POAAN (POAAN [5]; [14]) | pre-emergence activity against MATIN (MATIN [7]; application rate 1280 g/ha) | pre-emergence activity against AMARE (AMARE [8]; [13]) | pre-emergence activity against POAAN (POAAN [5]; [15]) | other results
1 | CCOCc1nn(C)cc1C(=O)N1CCC1Cc1ccccc1F (racemic) [Example I-105] | 90% | 90% | 100% | 90% | 90% | 100% | 100% | 90% | 100% | 100% | – | – | – | – | – | – | – | – | –
2 | CCOCc1nn(C)cc1C(=O)N1CCC1Cc1ccccc1Cl (racemic) [Example I-106] | – | 90% | 100% | 90% | 90% | 90% | 100% | – | 100% | 100% | 90% | 90% | 90% | 100% | 100% | – | – | – | –
3 | COCc1nn(C)cc1C(=O)N1CCC1Cc1ccccc1Cl (racemic) [Example I-113] | – | – | 90% | 90% | – | – | – | – | – | 100% | – | – | – | – | 100% | 90% | – | – | –
4 | COCc1nn(CCC(OC)OC)cc1C(=O)N1CCCC1Cc1ccccc1F (racemic) [Example I-048] | – | – | 90% | 90% | 90% | – | 90% | – | – | 100% | – | – | – | – | 90% | – | – | – | –
5 | COCc1c(C(=O)N2CCCC2Cc2ccc(Cl)cc2Cl)cnn1C (racemic) [Example I-166] | 90% | – | 90% | – | 100% | – | – | – | 90% | 100% | 90% | – | – | – | 90% | – | 90% | 90% | post-emergence activity against ECHCG (ECHCG [9]): 90%; post-emergence activity against VERPE (VERPE): 90%; post-emergence activity against MATIN (MATIN [10]): 90%
6 | COCc1nn(C)cc1C(=O)N1CCCC1Cc1c(F)cccc1Cl (single isomer, unassigned) [Example I-087] | – | 100% | 100% | 90% | 100% | 100% | 100% | 90% | 100% | 100% | 90% | 90% | 100% | 100% | 100% | 90% | 90% | 100% | pre-emergence activity against AMARE (AMARE [8]; application rate 320 g/ha, Table A8b): 90%; pre-emergence activity against ALOMY (ALOMY): 90%; pre-emergence activity against STEME (STEME [6]; application rate 320 g/ha): 90%; pre-emergence activity against LOLRI (LOLRI; application rate 80 g/ha): 100%; pre-emergence activity against LOLRI (LOLRI; application rate 320 g/ha): 100%; pre-emergence activity against MATIN (MATIN [7]; application rate 320 g/ha): 90%; pre-emergence activity against DIGSA (DIGSA; application rate 80 g/ha, Table A12c): 90%
